Like-named read-outs stand apart in the source and are kept apart here.
Experiments:
[1] = system: schistosomula and adult schistosomes; design: method as in PMID 31730617; details: SGC collection tested by the authors' laboratory; cited from earlier work
S. mansoni schistosomula = test: Schistosomula screens (Roboworm, phenotype and motility); type: cell-based, Schistosoma mansoni; details: 72 h; for EC50: Schistosoma mansoni
Experimental: Anthelmintic activity on the schistosomula stage of S. mansoni was evaluated using Roboworm, an integrated high-throughput, high content image analysis platform originally developed by Paveley et al. and subsequently used by our research group as previously described, [28], [50], [51]. Alternatively, the computer application Worminator can be used to assess motion of microscopic parasites such as the schistosomula stage of S. mansoni. Compounds (as single concentration or two-fold titrations) were prepared for screening in a 384-well plate (PerkinElmer, MA, USA), where solutions (1.6 mM, 0.5 μl) were wet stamped using the Biomek NX ^P liquid handling platform into Basch medium (20 μl). Negative (0.625% DMSO) and positive (Auranofin - AUR - at 10 µM final concentration in 0.625% DMSO) control wells were similarly prepared. Mechanically transformed schistosomula (about 120 parasites in 60 μl of Basch medium) were distributed into each treated well using a WellMate (Thermo Scientific, Loughborough, UK). Schistosomula/compound co-cultures were then incubated at 37°C for 72 h in a humidified atmosphere containing 5% CO 2. At 72 h, parasite/compound co-cultures were resuspended and tissue culture plates were imaged under the same conditions (37°C for 72 h in a humidified atmosphere containing 5% CO 2) using an ImageXpressXL high content imager (Molecular Devices, UK) with subsequent images processed for phenotype and motility as previously reported. Plate analysis returned a phenotype and motility score for each well and any scores below -0.15 and -0.35 (defined threshold anti-schistosomula values for phenotype and motility scores, respectively) defined a condition displaying anti-schistosomula activity. Compound screens were assessed based on the Z´ values (derived from the means and standard deviations of positive and negative controls) and those equal to or above 0.3 for both phenotype and motility were considered successful.
Phenotype and motility scores of each titration were used to generate dose response curves in GraphPad Prism 7.02 based on the corrected average score of the three replicates for each data point.

[2] = MTT cytotoxicity assay on HepG2 cells; type: cell-based, Human; details: human, HepG2 cells, MTT, 24 h; three dose response titrations (200 - 1 µM)
Experimental: (§1) Compound cytotoxicity on Human Hepatocyte Carcinoma (HepG2) cells (85011430, Sigma Aldrich) was elucidated by the MTT (3-(4,5-dimethylthiazol-2-yl)-2,5-diphenyltetrazolium bromide) tetrazolium reduction assay as previously described, [28], [50]. Briefly, HepG2 cells were seeded at a density of 20,000 per well in 96-well black, clear bottom falcon plate in modified BME medium (50 μl; containing 1% antibiotic/mycotic (Sigma-Aldrich, Gillingham, UK), 1% 200 mM L-glutammine (Gibco, Paisley, UK), 1% MEM non-essential amino acid solution (Gibco, Paisley, UK), and 10% fetal bovine serum (Gibco, Paisley, UK)). HepG2 plates seeded for cytotoxicity screens were treated with compounds 24 h post-seeding. Each compound was tested at 200, 100, 75, 50, 20, 10 and 1 µM; each concentration was assayed in triplicate. Blank wells (no cells), as well as positive (1% v/v Triton X-100, X100, Sigma-Aldrich) and negative (1.25% v/v DMSO or media only) controls, were included in each plate. After addition of compounds, each plate was then incubated for a further 20 h before application of MTT reagent for assessment of compound cytotoxicity (4 h incubation with MTT for a total 24 h cell-drug incubation). The absorbance reading at 570 nm was measured with a POLARstar Omega (BMG Labtech, UK) microtiter plate reader. Dose response curves were generated in GraphPad Prism 7.02 based on the corrected average absorbance of the three replicates for each concentration point.

HepG2 cells = test: MTT cytotoxicity assay on HepG2 cells; type: cell-based, Human; details: dose response titration
Experimental: as §1

S. mansoni miracidia = test: Miracidia to sporocyst transformation screens; type: cell-based, Schistosoma mansoni; details: 10 µM, 48 h
Experimental: Following hatching of S. mansoni eggs, miracidia were incubated on ice for 15 min and then centrifuged at 700 x g for 5 min at 4°C. The miracidia pellet was then re-suspended in 5 ml of Chernin's balanced salt solution (CBSS), subjected to pelleting and two subsequent washes (all at 700 x g for 5 min at 4°C). Afterwards, the supernatant was carefully removed with a serological pipette and the miracidia-enriched pellet was resuspended with CBSS supplemented with 1 mg/ml each of glucose and trehalose and 500 µl of Penicillin-Streptomycin (containing 10,000 units penicillin and 10 mg streptomycin/ml, P4333, Sigma-Aldrich). In preparation for the screens, CBSS (250 µl) was aliquoted to each well of a 24-well plate followed by addition of each compound in DMSO (1 mM concentration in 1% DMSO) or DMSO alone (1%, negative control). Next, approximately 20-25 miracidia (in 250 µl of CBSS) were aliquoted to each well. […] Both preliminary and secondary screens were performed in duplicate on two separate occasions (two independent biological replicates). Miracidia were incubated for 48 h at 26°C before being evaluated using an Olympus inverted light microscope for morphological and behavioural changes differing from the control wells. Dead, partially transformed and fully transformed miracidia were enumerated in the DMSO control and the assay plates as previously described, [23], [59]. […] Absence of ciliated plates attached to the surface of the parasite and formation of sporocyst tegument defined the so-called “fully transformed” parasites.

S. mansoni adult worms = test: Adult worm screens (WormassayGP2 motility, egg count); type: cell-based, Schistosoma mansoni; details: 72 h; for adult worm egg production / adult worm motility compared to compound 7: 12.5 µM
Experimental: For compound screening, adult worms (three worm pairs/well for compound 7 and the hit compounds of set two; one worm pair/well for the hit compounds of set three) were transferred into wells of a 48-well tissue culture plate containing 1 ml of adult worm media. Adult worms were treated with compounds previously identified as hits at 10 µM on 72 h cultured schistosomula. Worms were dosed with an appropriate volume of 10 mM stock solution of each compound (in DMSO) to have a concentration range of 50 – 6.25 µM (up to 0.5% DMSO, primary screen of compound 7). Secondary screens were performed on the structural analogues of compound 7 (only the schistosomula hits at 10 µM) at a single concentration (12.5 µM) and compared to the same concentration of the parental compound (included in the screen as reference). DMSO (0.5%) and praziquantel (10 µM in 0.5% DMSO) were also included as negative and positive control treatments (both primary and secondary screens). Treated adult worms were incubated for 72 h in a humidified environment at 5% CO 2 at 37°C. Parasite motility after drug treatment was assessed by a digital image processing-based system (WormassayGP2, see Software availability) modified after Wormassay, [56], [57]. Egg production was assessed according to the methodology described by Edwards et al..

[3] = average of phenotype and motility metrics, read-out: Schistosomula EC50 Average
[4] = dose response titrations (10 - 0.625 µM), read-out: Schistosomula EC50 Motility
[5] = dose response titrations (10 - 0.625 µM), read-out: Schistosomula EC50 Phenotype

| Structure (SMILES) | activity on schistosomula and adult schistosomes [1] | EC50 (S. mansoni schistosomula; [3]) | EC50 (S. mansoni schistosomula; [4]) | EC50 (S. mansoni schistosomula; [5]) | also measured |
| --- | --- | --- | --- | --- | --- |
| CCCc1cc(C)[nH]c(=O)c1CNC(=O)c1cc(-c2ccc(N3CCN(C(C)C)CC3)nc2)cc2c1cnn2C(C)C [UNC1999] | potent activities | – | – | – | – |
| c1ccc2sc(N3CCN(c4nc(N5CCOCC5)nc(N5CCOCC5)n4)CC3)nc2c1 [Compound 11] | – | > 50 µM | > 50 µM | > 50 µM | – |
| CCCc1cc(C)[nH]c(=O)c1CNC(=O)c1cc(-c2ccnc(N3CCN(C)CC3)c2)cc2c1cnn2C(C)C [GSK343] | potent activities | – | – | – | – |
| O=C1CNC(=O)/C1=C\Nc1ccc(O)cc1 [Compound 4] | – | – | – | – | anti-schistosomula activity (hit on phenotype and motility) (S. mansoni schistosomula; 50 µM): showed anti-schistosomal activity; schistosomula phenotype induced (S. mansoni schistosomula; 50 µM): elongated phenotype |
| Clc1cc2c(NC3CCCC3)nnc(-c3ccncc3)c2cc1Cl [Compound A-196] | potent activities | – | – | – | – |
| Cc1cn(CCN2CCN(c3ccccc3-c3cc(C#N)cc(C(=O)NCCCN4CCCC4)c3)CC2)c2ccccc12 [LLY-507] | potent activities | – | – | – | – |
| CC(=O)Nc1ccc(S(=O)(=O)N2CCN(c3nc(N4CCCCC4)nc(N4CCCCC4)n3)CC2)cc1 [Compound 20] | – | – | 4.93 µM | 3.47 µM | CC50 at 24 h [2]: > 100 µM; cytotoxicity on HepG2 cells (in words) (HepG2 cells): not toxic to this cell line, except for concentrations above 100 µM; effect on miracidia (S. mansoni miracidia): readily killed miracidia; adult worm motility and oviposition (S. mansoni adult worms; 6.25 µM, compared to compound 7): strong anthelmintic activities; adult worm egg production (S. mansoni adult worms): greater potency than compound 7; adult worm motility compared to compound 7 (S. mansoni adult worms): greater potency than compound 7; anti-schistosomula activity (hit on phenotype and motility) (S. mansoni schistosomula; 50 µM): active at the highest concentration |
| Cc1ccccc1Nc1nc(N2CCNCC2)nc(N2CCOCC2)n1 [Compound 14] | – | > 10 µM | > 10 µM | > 10 µM | anti-schistosomula activity (hit on phenotype and motility) (S. mansoni schistosomula; 50 µM): only active at 50 µM |
| C1CN(c2nc(N3CCOCC3)nc(N3CCOCC3)n2)CCN1 [Compound 10] | – | > 50 µM | > 50 µM | > 50 µM | – |
| O=[N+]([O-])c1ccc2nc(N3CCN(c4nc(N5CCOCC5)nc(N5CCOCC5)n4)CC3)sc2c1 [Compound 21] | – | > 50 µM | > 50 µM | > 50 µM | – |
| c1ccc(Nc2nc(Nc3ccccc3)nc(N3CCNCC3)n2)cc1 [Compound 8] | – | 4.12 µM | 4.98 µM | 3.27 µM | CC50 at 24 h [2]: 14.9 µM; effect on miracidia (S. mansoni miracidia): readily killed miracidia; adult worm egg production (S. mansoni adult worms): reducing egg production similarly to compound 7; adult worm motility compared to compound 7 (S. mansoni adult worms): more potent than the original hit compound |
